Results taken from patent US20170269060A1, “Assays and Compounds to Treat Kidney Diseases” (Rush University Medical Center, priority 2014, published 2017).

Tests used:
[1] = tested on: mouse podocytes; test: Scratch, wound-healing assay (podocyte migration); assay type: cell-based; conditions: PAN or LPS treatment, cotreatment, 48 hours
Method: The effect of identified novel compounds on podocyte migration was assessed using a classic scratch, wound-healing assay as described. (Mathieson, Nat Rev Nephrol, 2012.) Differentiated mouse podocytes per well were seeded overnight in type-I collagen coated wells of a 24 well plate. Each well was subsequently scratched using a sterile 200 μI pipette tip, washed and placed into fresh culture medium. Cells in wells were also treated with PAN, LPS, pyr or a combination, as described in the text. After 48 h, cells were fixed with 2% paraformaldehyde and stained with DAPI. Images of cells near scratched surfaces and their DAPI-stained nuclei were acquired using a 10× objective using a Zeiss Axio Observer D1 microscope (Carl Zeiss Group, Hartford, Conn.) and analyzed using ImageJ software (NIH). Images using transmitted light were also acquired at the beginning and the end of the experiment and were used to align images of pre- and post-treated cells for counting cells that had migrated into similar sized fields. The data shown represent the mean±SEM of three independent experiments.
Next, we assessed the efficacy of this small molecule in a functional assay. In vitro, PAN- or LPS-mediated injury promotes directional migration and wound closure by podocytes in a scratch wound-healing assay.

[2] = biological target: T1, human β1 integrin (Homo sapiens, UniProt P05556); test: Active β1 integrin (antibody 12G10) in PAN-treated human podocytes; assay type: cell-based; conditions: PAN treatment (FIG. 9D)
T1 construct: endogenous in cells; host or cells: conditionally immortalized human podocytes (Saleem et al. 2002)
T1 sequence (P05556 21-798): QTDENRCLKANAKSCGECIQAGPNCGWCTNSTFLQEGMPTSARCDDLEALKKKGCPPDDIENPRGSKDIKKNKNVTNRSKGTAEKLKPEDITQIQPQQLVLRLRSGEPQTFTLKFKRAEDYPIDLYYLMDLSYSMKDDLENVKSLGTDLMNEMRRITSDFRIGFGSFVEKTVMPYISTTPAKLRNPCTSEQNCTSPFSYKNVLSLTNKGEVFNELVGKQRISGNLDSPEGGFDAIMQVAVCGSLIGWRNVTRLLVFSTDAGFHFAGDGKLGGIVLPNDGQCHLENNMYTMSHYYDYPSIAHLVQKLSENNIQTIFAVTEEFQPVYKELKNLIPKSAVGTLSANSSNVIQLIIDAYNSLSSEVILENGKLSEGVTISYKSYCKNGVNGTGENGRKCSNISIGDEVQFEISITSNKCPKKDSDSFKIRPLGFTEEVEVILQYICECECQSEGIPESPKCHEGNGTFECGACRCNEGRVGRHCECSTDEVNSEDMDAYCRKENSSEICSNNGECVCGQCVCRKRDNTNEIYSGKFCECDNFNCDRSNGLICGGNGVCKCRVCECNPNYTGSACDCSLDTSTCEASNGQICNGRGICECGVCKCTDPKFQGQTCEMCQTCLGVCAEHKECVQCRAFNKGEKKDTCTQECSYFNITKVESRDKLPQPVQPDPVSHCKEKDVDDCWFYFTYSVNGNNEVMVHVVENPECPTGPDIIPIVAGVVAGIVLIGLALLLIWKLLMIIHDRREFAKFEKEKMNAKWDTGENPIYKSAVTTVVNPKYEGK
T1 sequence (P26006 33-1051 partner): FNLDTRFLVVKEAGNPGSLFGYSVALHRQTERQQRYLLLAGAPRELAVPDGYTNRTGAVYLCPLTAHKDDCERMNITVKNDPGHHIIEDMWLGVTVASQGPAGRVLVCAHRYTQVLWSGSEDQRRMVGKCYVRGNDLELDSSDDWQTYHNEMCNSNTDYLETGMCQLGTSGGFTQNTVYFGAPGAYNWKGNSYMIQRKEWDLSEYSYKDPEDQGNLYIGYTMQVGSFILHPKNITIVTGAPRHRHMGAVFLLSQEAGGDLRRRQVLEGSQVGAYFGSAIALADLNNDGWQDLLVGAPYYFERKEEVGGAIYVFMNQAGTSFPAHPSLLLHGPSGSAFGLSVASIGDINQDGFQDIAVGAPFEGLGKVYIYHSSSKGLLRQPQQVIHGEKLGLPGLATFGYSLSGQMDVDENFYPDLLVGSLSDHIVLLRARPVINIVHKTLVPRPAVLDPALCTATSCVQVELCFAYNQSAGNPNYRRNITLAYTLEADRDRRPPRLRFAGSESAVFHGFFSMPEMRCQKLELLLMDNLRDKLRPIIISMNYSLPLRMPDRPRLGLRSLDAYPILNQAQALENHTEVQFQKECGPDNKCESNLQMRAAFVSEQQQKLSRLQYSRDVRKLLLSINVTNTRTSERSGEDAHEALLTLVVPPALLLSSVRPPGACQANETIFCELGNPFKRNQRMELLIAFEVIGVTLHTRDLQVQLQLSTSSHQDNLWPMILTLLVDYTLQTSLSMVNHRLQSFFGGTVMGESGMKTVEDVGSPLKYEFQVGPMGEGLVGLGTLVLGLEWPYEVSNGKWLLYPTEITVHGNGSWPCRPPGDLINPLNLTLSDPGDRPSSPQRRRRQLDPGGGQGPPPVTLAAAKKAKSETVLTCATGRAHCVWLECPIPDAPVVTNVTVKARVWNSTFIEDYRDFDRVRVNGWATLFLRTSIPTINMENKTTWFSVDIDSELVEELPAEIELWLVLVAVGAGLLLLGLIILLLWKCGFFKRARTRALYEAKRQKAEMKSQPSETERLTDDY
Description: FIG. 9A-9E. An An β1-integrin agonist pyrintegrin (pyr) protects podocytes from damage. (A) The published chemical structure of pyr. (Xu et al. PNAS, 2010.) (B-D) Pyr protects podocytes from PAN-induced loss of F-actin fibers and focal adhesions and enhances active β1-integrin levels. (B) Graphs showing the effect of pyr on the number of F-actin fibers per cell and the number of vinculin spots per cell under each treatment condition. Data shown are means 6 SEMs per cell from three replicate wells (n=500-1000 cells per well). **P, 0.01; ***P, 0.001; ****P, 0.001. (C) Representative fluorescence images of murine podocytes after various treatments and after staining with phalloidin and antiactive β1 antibody. […] (D) Representative fluorescence images of human podocytes after various treatments as shown. […] Representative images (left panel) and a bar graph (right panel) showing confocal microscopy-based quantitation of the number of migrating podocytes in a scratch wound-healing assay Lines represent the wound margins at the beginning of the experiment (0 hours). […]
Integrin-α3β1 is highly expressed in podocytes and primarily binds to the GBM-expressed ligand laminin, thereby mediating stable adhesion of podocytes to the GBM. […] Given that pyrintegrin affects integrin-β1, (Xu et al., PNAS, 2010.) we quantified the level of β1 in treated cells. […]

[3] = tested on: SD rats; test: PAN-induced nephropathy in rats; assay type: in vivo, rat; conditions: PAN 150 mg/kg i.v., pyrintegrin 10 mg/kg daily for 14 days
Method: The induction of nephropathy in male wild type SD rats (n=6 per group) by PAN injection was performed as described. (Reiser et al., J Clin Invest, 2004; Wei et al., Nature Medicine, 2008; Nakamura et al., Lab Invest, 1991.) Briefly, 5 week old male rats were intravenously injected with PAN (150 mg/kg, in water) and treatment with vehicle or pyrintegrin was started on the same day. Animals in the vehicle group were administered saline-based vehicle solution (3.3% DMSO and 5% Cremaphor EL) intraperitoneally daily for 14 days. Animals in the treatment group were treated with pyrintegrin (10 mg/kg, 3.3% DMSO and 5% Cremaphor EL) in the saline based solution daily for 14 days. Spot urine was collected from animals for measurement of albuminuria as mg albumin per mg creatinine. (Faul et al., Nat Med, 2008) Results are expressed as mean±SEM.
Low-dose LPS decreases β1 integrin activation in podocytes and causes podocyte damage and proteinuria in mice. (Yu et al., N Engl J Med, 2013) Here, we used this model to test whether pyrintegrin, by preserving active β1 integrin in podocytes, is able to suppress podocyte FP effacement and the development of proteinuria in live animals. […] Given that pyrintegrin protected podocytes from PAN-induced damage in vitro, we also tested the efficacy of pyrintegrin in a PAN injury model.

level of active β1 integrin in human podocytes (antibody 12G10) [2]: rescued
Compound: O=S(=O)(NCC1CC1)c1ccc(Nc2nccc(N3CCCc4cc(O)ccc43)n2)cc1 [Pyrintegrin]
podocyte motility and wound closure [1]: significantly reduced podocyte motility and wound closure | albuminuria caused by PAN-induced nephropathy [3]: significantly reduced albuminuria
